# Experiments:
# [1] = system: H1N1 (influenza A/New Caledonia/20/99); test: microbe, parasite or virus in culture; assay type: cell-based; conditions: H1N1, A549, 48 h
# NFκB = NFκB reporter assay, TNFα stimulation of A549 NFκB-NanoLuciferase reporter cells; assay type: cell-based; conditions: Homo sapiens, 4 ng/ml TNFα, NanoGlo luciferase assay 6 hours later
# Description: Compounds of the present invention have been tested for their capacity to inhibit NFκB.
# The NFκB reporter construct was made by cloning 5 NFκB responsive elements upstream of a NanoLuciferase reporter gene flanked by AAVS1 genomic sequences.
# NFκB Responsive element fused with NanoLuciferase and SV40 late Poly(A) signal was amplified from pNL3.2-NFκB-Nluc (Promega) using NFKB-NLUC-F and NFKB-NLUC-R primers and inserted by Infusion (TaKaRa) in AAVS1 SA-2A-puro-pA donor plasmid (Hockemeyer et al, Nat Biotechnol. 2009, 27, 851-7) digested by Sal1. pCRISPR AAVS1-T2 expressing a guide RNA (gRNA) to target human AAVS1 (T2 target sequence) was constructed by inserting AAVS1-T2A hybridized primers in pLentiCRISPR v2-blast (Sanjana et al, Nat Methods. 2014, 11, 783-4) digested by Bsmbl.
# A549 cells were transfected by the plasmids and puromycine selected for 5 days (1 μg mL-1). Then clones were obtained by limiting dilution and selected to maximize TNF dependent NFκB-NanoLuciferase induction.
# The reporter cells were seeded on a 96-well plate for overnight with DMEM including 10% FBS. Test compounds were added at varying concentrations. The cells then were treated with 4 ng/ml TNFα (Peprotech, ref E251) in DMEM+10% FBS. NanoGlo luciferase assay (Promega) was carried out 6 hours later. Luminescence was measured using a Spark 20M spectrofluorimeter (Tecan). Values were normalized to the luminescence measured in untreated cells.
# UXF 1138 = test: Cytotoxicity, propidium iodide based monolayer assay; assay type: cell-based; conditions: 96 h; UXF 1138 uterine sarcoma, four days of treatment, T/C=50%; read-out: Absolute IC50
# Experimental: The cytotoxicity was tested for compounds of the invention on five different cell-lines, namely LXFL 1121, MAXF 401, MMXF L-636, PRXF PC-3M and UXF 1138 which are respectively lung large cell carcinoma, breast adeno carcinoma, multiple myeloma, prostate adeno carcinoma and uterine sarcoma.
# A working stock solution of the test compounds was prepared in DMSO at a concentration of 33 mM or 8.25 mM, and small aliquots were stored at −20° C. On each day of an experiment, a frozen aliquot of the working stock solution was thawed and stored at room temperature prior to and during treatment.
# All liquid handling steps were performed using the Tecan Freedom EVO 200 platform. First, serial 2-fold dilutions of the 33 mM DMSO working stock solution were done in DMSO. The DMSO dilutions were then diluted 1:22 into cell culture medium in an intermediate dilution plate. Finally, 10 μl taken from the intermediate dilution plate were transferred to 140 μl/well of the final assay plate. Thus, the DMSO serial dilutions were diluted 1:330 with cell culture medium, and the DMSO concentration in the assay was 0.3% v/v.
# Cell lines were routinely passaged once or twice weekly and maintained in culture for up to 20 passages. Most cell lines were grown at 37° C. in a humidified atmosphere with 5% CO2 in RPMI 1640 medium (25 mM HEPES, with L-glutamine, #FG1385, Biochrom, Berlin, Germany) supplemented with 10% (v/v) fetal calf serum (Sigma, Taufkirchen, Germany) and 0.05 mg/mL gentamicin (Life Technologies, Karlsruhe, Germany).
# A modified propidium iodide (PI) based monolayer assay was used to assess the anti-cancer activity of the compounds. Briefly, cells were harvested from exponential phase cultures, counted and plated in 96 well flat-bottom microtiter plates at a cell density of 4,000 to 40,000 cells/well dependent on the cell line's growth rate. The individual seeding density for each cell line ensure exponential growth conditions over the whole or at least the bigger part of the treatment period. After a 24 h recovery period, to allow the cells to resume exponential growth, 10 μl of culture medium (6 control wells/cell line/plate) or of culture medium with test compounds were added. Compounds were applied at ten concentrations in 2-fold increments in duplicates up to 25 μM or 100 μM and treatment continued for four days. After four days of treatment, cells were next washed with 200 μl PBS to remove dead cells and debris, then 200 μl of a solution containing 7 μg/ml propidium iodide (PI) and 0.1% (v/v) Triton X-100 was added. After an incubation period of 1-2 hours at room temperature, fluorescence (FU) was measured using the Enspire Multimode Plate Reader (excitation λ=530 nm, emission k=620 nm) to quantify the amount of attached viable cells.
# Drug effects were expressed in terms of the percentage of the fluorescence signal, obtained by comparison of the mean signal in the treated wells with the mean signal of the untreated controls (expressed by the test-versus-control value, T/C−value [%]):
# [formula] IC values reported reflect the concentration of the test compound that achieves T/C=50%. Calculation was done by 4 parameter non-linear curve fit.
# [2] = target: T1, CISD3 Gene Product (Miner2) (Homo sapiens, UniProt P0C7P0); test: Stability of Fe-S cluster binding of purified NEET protein (absorbance 458 nm); assay type: biochemical; conditions: for Residual cluster bound at end of experiment (Percentage Absorbance 458 nm at time zero): CISD3 gene product 20 μM, pH 6, at 180 minutes, vehicle control 11%; for Stabiliser or destabiliser of Fe-S cluster binding by CISD3 Gene Product (Miner2): time to 50% cluster loss changed by more than 25% compared to the Control sample, at the concentrations tested
# T1 sequence (P0C7P0 15-127): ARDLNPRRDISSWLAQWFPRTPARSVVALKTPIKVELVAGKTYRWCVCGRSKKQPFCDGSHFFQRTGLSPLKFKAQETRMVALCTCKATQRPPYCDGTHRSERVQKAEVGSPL
# Experimental: (§1) The modulator effect on the NEET proteins encoded by human CISD1, CISD2, and CISD3 genes by the compounds of the invention has been tested and is reported below. Particularly, the biochemical function of the NEET proteins is measured by the stability of Fe—S cluster binding of the purified NEET proteins.
# (§2) The Fe—S cluster binding capacity of NEET proteins is known to be coordinated by four amino-acids in a stretch of 16 (three Cysteine and one Histidine). As the lability of the Fe—S cluster of NEET proteins is sensitive to the environment, cluster stability measurements are one of the measures of interactions of NEET proteins with small molecules and compounds. NEET protein/2Fe-2S cluster stability can be assessed by monitoring the decay in absorbance of its characteristic 458-nm peak (characteristic of the oxidized 2Fe-2S cluster) over time. Each NEET protein (mitoNEET, NAF-1 and Miner 2) was tested for its Fe—S binding in the absence or presence of a compound according to the invention (see table 4 below). The rate of cluster release (time in minutes to achieve 50% loss of bound Fe—S cluster) was compared for each NEET protein in the presence of one of the compounds of the invention (in a 1:3 protein:compound molar ratio) relative to each protein alone.
# (§3) At pH 6, all the three NEET proteins (mitoNEET, NAF-1 and Miner 2) have a characteristic rate of loss of the bound Fe—S cluster that can be measured by the decrease of absorbance at wavelength 458 nm over time, using a spectrophotometer. Thus, Bis-Tris buffer (100 mM Bis-Tris pH6, 100 mM Nacl) was used at pH 6 to dilute either DMSO (Blank sample: Bis-Tris Buffer pH 6, 66 μM DMSO), DMSO and one of the three NEET proteins (Control sample: Bis-Tris Buffer pH 6, 66 μM DMSO, 20 μM purified NEET protein) or DMSO, one of the three NEET proteins and a compound of the invention (Test sample: Bis-Tris Buffer pH 6, 66 μM DMSO, 20 μM purified NEET protein, 60 μM compound of the invention).
# (§4) A reaction mix containing DMSO diluted in the Bis-Tris Buffer with or without a compound of the invention was prepared. The purified NEET protein was the last component added to the reaction mix which was then aliquoted into 4 replicates in 96 wells plates. The absorbance at wavelength 458 nm was taken at 5 minutes intervals at 37° C. with a spectrofluorimeter. The assay run time for CISD2 gene product (NAF-1) was 500 minutes and 180 minutes for both the CISD1gene product (mitoNEET) and the CISD3 gene product (Miner2).
# (§5) In addition to time monitoring, residual bound Fe—S cluster to NEET protein was measured at the final point of the spectrometry assay for each Test sample and compared to the Control sample data (in parenthesis table 4). This residual binding is measured by the differential percentage between the absorbance 458 nm at time zero and the absorbance 458 nm at the end of the experiment (i.e. respectively 500 or 180 minutes as described here above), showing the percentage of NEET protein still able to bind a Fe—S cluster.
# (§6) Analysis of the absorbance enables the time for which 50% loss of bound Fe—S cluster is reached (i.e. a 50% absorbance decrease at 458 nm) for each Test sample and each Control sample (in parenthesis table 4) to be determined. The data are then compared to determine whether the compound of the invention stabilizes or destabilizes the NEET protein/Fe—S cluster binding.
# [3] = target: T2, CISD1 Gene Product (mitoNEET) (Homo sapiens, UniProt Q9NZ45); test: as above; assay type: biochemical; conditions: for Time (in minutes) to achieve 50% loss of bound cluster (Absorbance 458 nm) / Residual cluster bound at end of experiment (Percentage Absorbance 458 nm at time zero): mitoNEET 20 μM, compound 60 μM; for Time (in minutes) to achieve 50% loss of bound cluster (Absorbance 458 nm): pH 6, 37° C., run time 180 minutes, vehicle control 80; for Residual cluster bound at end of experiment (Percentage Absorbance 458 nm at time zero): pH 6, at 180 minutes, vehicle control 16%
# T2 sequence (Q9NZ45 33-108 limits assumed): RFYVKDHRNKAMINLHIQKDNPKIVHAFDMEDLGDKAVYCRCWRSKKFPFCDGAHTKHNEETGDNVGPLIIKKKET
# Experimental: as §1, §2, §3, §4, §5, §6
# [4] = target: T3, CISD2 Gene Product (NAF-1) (Homo sapiens, UniProt Q8N5K1); test: as above; assay type: biochemical; conditions: for Time (in minutes) to achieve 50% loss of bound cluster (Absorbance 458 nm) / Residual cluster bound at end of experiment (Percentage Absorbance 458 nm at time zero): NAF-1 20 μM, compound 60 μM; for Time (in minutes) to achieve 50% loss of bound cluster (Absorbance 458 nm): pH 6, 37° C., run time 500 minutes, vehicle control 310 or 210; for Residual cluster bound at end of experiment (Percentage Absorbance 458 nm at time zero): pH 6, at 500 minutes, vehicle control 3%; for Stabiliser or destabiliser of Fe-S cluster binding by CISD2 Gene Product (NAF-1): time to 50% cluster loss changed by more than 25% compared to the Control sample, at the concentrations tested
# T3 sequence (Q8N5K1 57-135 limits assumed): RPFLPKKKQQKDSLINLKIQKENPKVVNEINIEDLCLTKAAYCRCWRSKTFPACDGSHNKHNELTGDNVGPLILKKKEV
# Experimental: as §1, §2, §3, §4, §5, §6
SMILES,IC50 [1] [nM],EC50 (NFκB) [nM],IC50 (UXF 1138) [nM],Residual cluster bound at end of experiment (Percentage Absorbance 458 nm at time zero) ([2]; compound 60 μM),"Time (in minutes) to achieve 50% loss of bound cluster (Absorbance 458 nm) ([2]; Miner2 20 μM, compound 60 μM, pH 6, 37° C., run time 180 minutes, vehicle control 60)",Stabiliser or destabiliser of Fe-S cluster binding by CISD3 Gene Product (Miner2) [2],Time (in minutes) to achieve 50% loss of bound cluster (Absorbance 458 nm) [3],Residual cluster bound at end of experiment (Percentage Absorbance 458 nm at time zero) [3],"Stabiliser or destabiliser of Fe-S cluster binding by CISD1 Gene Product (mitoNEET) ([3]; time to 50% cluster loss changed by more than 25% compared to the Control sample, at the concentrations tested)",Time (in minutes) to achieve 50% loss of bound cluster (Absorbance 458 nm) [4],Residual cluster bound at end of experiment (Percentage Absorbance 458 nm at time zero) [4],Stabiliser or destabiliser of Fe-S cluster binding by CISD2 Gene Product (NAF-1) [4]
"CC1(C)CCc2sc(NC(=O)c3ccc(NCC4CCOCC4)cc3)c(C(=O)O)c2C1 [#164, 5,5-Dimethyl-2-[[4-(tetrahydropyran-4-ylmethylamino)benzoyl]amino]-6,7-dihydro-4H-benzothiophene-3-carboxylic acid]",16,90,–,–,–,–,–,–,–,–,–,–
"CC1(C)CCc2c(sc(NC(=O)c3ccccc3)c2C(=O)O)C1 [Compound #15, 2-Benzamido-6,6-dimethyl-5,7-dihydro-4H-benzothiophene-3-carboxylic acid]",60,150,–,–,–,–,–,–,–,–,–,–
"COc1ccc(C(=O)Nc2sc3c(c2C(=O)O)CCC(C)(C)C3)c(F)c1 [Compound #16, 2-[(2-Fluoro-4-methoxybenzoyl)amino]-6,6-dimethyl-5,7-dihydro-4H-benzothiophene-3-carboxylic acid]",43.8,150,–,–,–,–,–,–,–,–,–,–
"CC1(C)Cc2c(sc(NC(=O)c3ccccc3)c2C(=O)O)C(C)(C)C1 [Compound #33, 2-Benzamido-5,5,7,7-tetramethyl-4,6-dihydrobenzothiophene-3-carboxylic acid]",34.6,400,–,–,–,–,–,–,–,–,–,–
"COCCNc1ccc(C(=O)Nc2sc3c(c2C(=O)O)CC(C)(C)CC3(C)C)cc1 [Compound #60, 2-[[4-(2-Methoxyethylamino)benzoyl]amino]-5,5,7,7-tetramethyl-4,6-dihydrobenzothiophene-3-carboxylic acid]",10,–,851,38% (11%),90 (60) minutes,Stabilisers,100 (80) minutes,35% (16%),stabilisers,120 (310) minutes,12% (3%),destabilisers
"CC1(C)CCc2sc(NC(=O)c3ccc(NC4CCOCC4)cc3)c(C(=O)O)c21 [Compound #62, 4,4-Dimethyl-2-[[4-(tetrahydropyran-4-ylamino)benzoyl]amino]-5,6-dihydrocyclopenta[b]thiophene-3-carboxylic acid]",50,380,–,–,–,–,–,–,–,–,–,–
"CC1(C)Cc2c(sc(NC(=O)c3ccc(NCC4CCOCC4)cc3)c2C(=O)O)C(C)(C)C1 [Compound #132, 5,5,7,7-Tetramethyl-2-[[4-(tetrahydropyran-4-ylmethylamino)benzoyl]amino]-4,6-dihydrobenzothiophene-3-carboxylic acid]",1.7,40,–,50% (11%),–,Stabilisers,90 (80) minutes,19% (16%),–,210 (310) minutes,19% (3%),destabilisers

# Source: patent US11492347B2 (ENYO PHARMA, priority 2018, dated 2022)
